Assay results as given in patent US20160152976A1, “COMPOUND ADMINISTRATION PRECURSOR AND MEDICAMENT CARRIER PREPARATION” (HitGen LTD., priority 2013, published 2016).
{C12NH2} = amino-(CH2)12 linker attached through a phosphate; {C12NH2-P} = aminododecyl phosphate linker; {FITC} = fluorescein isothiocyanate label

test system: HepG2 cells; test: not given; conditions: original compound 2 linked to the fluorescent tag (FIG. 8A)

Compound	entry into cells
C#CCN(CC1CCN(C(=O)Nc2ccccc2)CC1)c1cccc(-c2sc(C(=O)O)c(OCC(=O)O)c2Br)c1 [compound 2, 4-bromo-3-oxoacetic acid-5-(3-(((1-phenylcarbamoylpiperidine)-4-methyl)-N-propargylamine)phenyl)thiophene-2-formic acid]	can not enter the cells

test system: HepG2 cells; test: Transmembrane transfer of DNA/RNA fragments and drug-delivery precursors into HepG2 cells, laser confocal microscope; format: cell-based; conditions: 4 nmol, X-tremeGENEsiRNA transfection reagent, 6 h, laser confocal microscope (FIG. 11)
Experimental: 24 h before transfer, the HepG2 cells in the phase of logarithmic growth were digested with trypsin; a culture medium containing 10% serum was used for adjusting the cell density to 0.5×10^6 cells/mL; and the cells were inoculated again in a cell culture dish of 15 cm and cultured in a culture incubator containing 5% CO2 at 37° C. The cells may be used for experiments when the cell density reaches 60% to 70% 24 h later.
4 nmol of the above-mentioned single-stranded or double-stranded DNA/RNA fragments in different sequences and various drug-delivery precursors was added to a sterile centrifuge tube (tube A) of 15 mL, respectively, and uniformly mixed with Opti-MEM in a corresponding volume, with a total volume of 2 mL; the X-tremeGENEsiRNA reagent was shaken gently, and 160 μL of X-tremeGENEsiRNA reagent was mixed with 1.84 mL of Opti-MEM in another tube (tube B); and the solution in the tube A was mixed with the solution in the tube B, the mixture was slightly triturated by a pipette and incubated for 20 min at room temperature.
6 mL of RPMI-1640 serum-free culture medium was added to the mixture and mixed uniformly; the primary culture medium in the HepG2 cell culture dish was discarded, and slightly triturated with RPMI-1640 serum-free culture medium once; and then, the mixture was moved into the HepG2-PT cell culture dish, and cultured in a culture incubator containing 5% CO2 at 37° C.

Compound	transfer into cells and positioning in the cells
5-NH2—(CH2)12—PO4-TGGGCTGGCCAAACTGCTG-3′-FITC (DNA, 5' {C12NH2}, 3' {FITC}, backbone not given here)	may be all transferred into cells by X-tremesiRNA, with most of them into the cytoplasm and a few of them into the cell nucleus
5′-NH2—(CH2)2—PO4-A19-3′-FITC [polyA of 19 bp]	may be all transferred into cells by X-tremesiRNA, with most of them into the cytoplasm and a few of them into the cell nucleus
5′-NH2—(CH2)12—PO4-A5-3′-FITC [polyA of 5 bp]	may be all transferred into cells by X-tremesiRNA, with most of them into the cytoplasm and a few of them into the cell nucleus
5′-NH2—(CH2)12—PO4-A38-3′-FITC [polyA of 38 bp]	may be all transferred into cells by X-tremesiRNA, with most of them into the cytoplasm and a few of them into the cell nucleus
5′-NH2—(CH2)12—PO4TGGGCTGGCCAAACTGCTG-3′-FITC: 5′-CAGCAGTTTGGCCAGCCCA-3′ (chain 1: DNA, 5' {C12NH2-P}, 3' {FITC}, backbone not given here; chain 2: DNA, backbone not given here)	may be all transferred into cells by X-tremesiRNA, with most of them into the cytoplasm and a few of them into the cell nucleus
